Consider 11 molecules from PMC7178819, “6,7-Dimethoxy-2-phenethyl-1,2,3,4-tetrahydroisoquinoline amides and corresponding ester isosteres as multidrug resistance reversers” (Journal of Enzyme Inhibition and Medicinal Chemistry, 2020).

Marks after values point to notes of the source that are not given here.

One data set addresses T1, P-gp (Homo sapiens, UniProt P08183).
T1 construct: expressed in transfected cells; host or cells: MDCK-MDR1 (Madin-Darby Canine Kidney cells, gift of Prof. P. Borst, NKI-AVL)
Briefly: Inhibition of Calcein-AM transport in MDCK-MDR1 cells. Conditions: for EC50: Calcein-AM, MDCK-MDR1 cells, mean ± SEM of two experiments; for inhibition at 30 min, 10 µM: human, MDCK-MDR1 cells (overexpressing P-gp), probe Calcein-AM (2.5 µM), at 10 µM, read-out: P-gp maximum inhibition. In kind it is cell-based. Put shortly:
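Confluent MDCK-MDR1 monolayers preincubated 30 min at 37 °C with compound (1 nM-100 µM), then 2.5 µM Calcein-AM (final) 30 min. After ice-cold PBS washes, fluorescence read (ex 485/em 535 nm); EC50 from % fluorescence increase over untreated basal versus log dose.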

For the next data set, the target named is T2, MRP1 (Homo sapiens, UniProt P33527).
T2 construct: expressed in transfected cells; host or cells: MDCK-MRP1 (Madin-Darby Canine Kidney cells, gift of Prof. P. Borst, NKI-AVL)
Briefly: Inhibition of Calcein-AM efflux in MDCK-MRP1 cells. In kind it is cell-based. Particulars: for EC50: Calcein-AM, NA: not active; for MRP1, percentage of the effect: at a concentration of 100 μM. As to the method: These experiments were carried out as previously described by Teodori et al. with minor modifications. Each cell line (30 000 cells per well) was seeded into black CulturePlate 96/wells plate with 100 µL medium and allowed to become confluent overnight. 100 µL of test compounds were solubilised in culture medium and added to monolayers, with final concentrations ranging from 1 nM to 100 µM. 96/Wells plate was incubated for 30 min in a humidified atmosphere 5% CO2 at 37 °C. Calcein-AM was added in 100 µL of Phosphate Buffered Saline (PBS) to yield a final concentration of 2.5 µM and plate was incubated for 30 min in a humidified atmosphere 5% CO2 at 37 °C. Each well was washed 3 times with ice cold PBS. Saline buffer was added to each well and the plate was read with Victor3 (PerkinElmer) at excitation and emission wavelengths of 485 and 535 nm, respectively. In these experimental conditions, Calcein cell accumulation in the absence and in the presence of tested compounds was evaluated and fluorescence basal level was estimated with untreated cells. In treated wells the increase of fluorescence with respect to basal level was measured. EC50 values were determined by fitting the fluorescence increase percentage versus log[dose].
The interaction potency between the designed compounds and P-gp was evaluated by measuring the transport inhibition of the pro-fluorescent probe Calcein-AM, that is a P-gp substrate, in a cell line overexpressing P-gp (MDCK-MDR1)[47]. The P-gp interacting profile was further investigated with two other assays: the Apparent Permeability (Papp) determination (BA/AB) in Caco-2 cell monolayer[48]^,[49], and the ATP cell depletion in the MDCK-MDR1 cell line[50]. Taking into account the results of the combined tests, an interacting compound can be classified as substrate or inhibitor. Papp determination measures the ratio between two fluxes: from the basolateral to apical compartments (BA, representative of passive diffusion) and from the apical to basolateral compartments (AB, representative of active transport). […] In the same manner, if (BA/AB) >2, the compound should probably be classified as a substrate. […] The selectivity of ligands 1–26 was evaluated by detecting their activity towards the other ABC transporters MRP1 and BCRP, by measuring the inhibition of the efflux of Calcein-AM (i.e., also a MRP1 substrate) in cells overexpressing MRP1 (MDCK-MRP1 cells), and the inhibition of the efflux of the fluorescent probe Hoechst 33342 (i.e. a BCRP substrate) in cells overexpressing BCRP (MDCK-BCRP cells), respectively.

The nature of data set [1]: Apparent permeability (Papp) determination (BA/AB) in Caco-2 cell monolayer. Particulars: human, Caco-2 monolayer. In kind it is in vitro ADME. In short, it runs like this: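 Caco-2 monolayers cultured 21 days (TEER monitored, >1000 Ω optimal); compounds added at 100 µM in HBSS to the filter well, 120 min at 37 °C, then apical and basolateral sides sampled. Papp ratio BA/AB computed; ratio >2 taken as indicating P-gp substrate.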
On the technique in general: Caco-2 monolayers are a common model of the intestinal barrier.

A further data set concerns MDCK-MDR1 cells. Briefly: Co-administration assay with doxorubicin (MTT), MDCK-MDR1 cells. The data set is classed as cell-based, canine. Conditions: compound 10 µM + 10 µM doxorubicin, MDCK-MDR1. As to the method:
(§1) The co-administration assay with doxorubicin was performed in MDCK-MDR1, HT29, HT29/DX, A549 and A549/DX cells at 48 h. On day 1, 10,000 cells/well were seeded into 96-well plates in a volume of 100 µL of fresh medium. On day 2, the tested drug was added alone to the cells at different concentrations (ranging from 40 nM to 10 µM). On day 3, the medium was removed and the drug at the same concentrations was added alone and in co-administration with 10 µM doxorubicin to the cells. After the established incubation time with the tested drug, MTT (0.5 mg/mL) was added to each well, and after 3 − 4 h incubation at 37 °C, the supernatant was removed. The formazan crystals were solubilised using 100 µL of DMSO/EtOH (1:1), and the absorbance values at 570 and 630 nm were determined on the microplate reader HTX Synergy (Bio-Tek Instruments).

The next data set relates to HT29 cells. Briefly: Co-administration assay with doxorubicin (MTT), HT29 cells. The data set is classed as cell-based, human. Conditions: compound 10 µM + 10 µM doxorubicin. As to the method:
as §1

A further data set relates to HT29/DX cells. Description: Co-administration assay with doxorubicin (MTT), HT29/DX cells. Conditions: compound 10 µM + 10 µM doxorubicin. In kind it is cell-based, human. The protocol:
as §1

The test system of the next data set is A549 cells. Briefly: Co-administration assay with doxorubicin (MTT), A549 cells. In kind it is cell-based, human. Conditions: compound 10 µM + 10 µM doxorubicin. As to the method:
as §1

A further data set concerns A549/DX cells. Description: Co-administration assay with doxorubicin (MTT), A549/DX cells. The data set is classed as cell-based, human. Conditions: compound 10 µM + 10 µM doxorubicin. As to the method: as §1
For data set [2], the system named is HT29, A549, HT29/DX and A549/DX cells. Description: Preliminary cytotoxicity of compounds alone in cancer cell lines. The data set is classed as cell-based, human. Particulars: all the tested concentrations, preliminary assays (data not shown). As to the method:
as §1
The efficacy of the compounds was next tested in cancer cell lines with various levels of P-gp, as the human adenocarcinoma colon cells (HT29) and non-small cell lung cancer cells (A549) displaying low amount of P-gp, and their resistant counterparts HT29/DX and A549/DX, with a high amount of P-gp[53]. In preliminary assays, we verified that 3 and 8 were not cytotoxic at all the tested concentration (data not shown).

What is called EC50 is the midpoint of the concentration-response curve. What is called efflux ratio is the permeability from basolateral to apical divided by that in the opposite direction, in the common usage. By inhibition is commonly meant the percentage by which the read-out fell short of the control.

T2 sequence (P33527 whole entry): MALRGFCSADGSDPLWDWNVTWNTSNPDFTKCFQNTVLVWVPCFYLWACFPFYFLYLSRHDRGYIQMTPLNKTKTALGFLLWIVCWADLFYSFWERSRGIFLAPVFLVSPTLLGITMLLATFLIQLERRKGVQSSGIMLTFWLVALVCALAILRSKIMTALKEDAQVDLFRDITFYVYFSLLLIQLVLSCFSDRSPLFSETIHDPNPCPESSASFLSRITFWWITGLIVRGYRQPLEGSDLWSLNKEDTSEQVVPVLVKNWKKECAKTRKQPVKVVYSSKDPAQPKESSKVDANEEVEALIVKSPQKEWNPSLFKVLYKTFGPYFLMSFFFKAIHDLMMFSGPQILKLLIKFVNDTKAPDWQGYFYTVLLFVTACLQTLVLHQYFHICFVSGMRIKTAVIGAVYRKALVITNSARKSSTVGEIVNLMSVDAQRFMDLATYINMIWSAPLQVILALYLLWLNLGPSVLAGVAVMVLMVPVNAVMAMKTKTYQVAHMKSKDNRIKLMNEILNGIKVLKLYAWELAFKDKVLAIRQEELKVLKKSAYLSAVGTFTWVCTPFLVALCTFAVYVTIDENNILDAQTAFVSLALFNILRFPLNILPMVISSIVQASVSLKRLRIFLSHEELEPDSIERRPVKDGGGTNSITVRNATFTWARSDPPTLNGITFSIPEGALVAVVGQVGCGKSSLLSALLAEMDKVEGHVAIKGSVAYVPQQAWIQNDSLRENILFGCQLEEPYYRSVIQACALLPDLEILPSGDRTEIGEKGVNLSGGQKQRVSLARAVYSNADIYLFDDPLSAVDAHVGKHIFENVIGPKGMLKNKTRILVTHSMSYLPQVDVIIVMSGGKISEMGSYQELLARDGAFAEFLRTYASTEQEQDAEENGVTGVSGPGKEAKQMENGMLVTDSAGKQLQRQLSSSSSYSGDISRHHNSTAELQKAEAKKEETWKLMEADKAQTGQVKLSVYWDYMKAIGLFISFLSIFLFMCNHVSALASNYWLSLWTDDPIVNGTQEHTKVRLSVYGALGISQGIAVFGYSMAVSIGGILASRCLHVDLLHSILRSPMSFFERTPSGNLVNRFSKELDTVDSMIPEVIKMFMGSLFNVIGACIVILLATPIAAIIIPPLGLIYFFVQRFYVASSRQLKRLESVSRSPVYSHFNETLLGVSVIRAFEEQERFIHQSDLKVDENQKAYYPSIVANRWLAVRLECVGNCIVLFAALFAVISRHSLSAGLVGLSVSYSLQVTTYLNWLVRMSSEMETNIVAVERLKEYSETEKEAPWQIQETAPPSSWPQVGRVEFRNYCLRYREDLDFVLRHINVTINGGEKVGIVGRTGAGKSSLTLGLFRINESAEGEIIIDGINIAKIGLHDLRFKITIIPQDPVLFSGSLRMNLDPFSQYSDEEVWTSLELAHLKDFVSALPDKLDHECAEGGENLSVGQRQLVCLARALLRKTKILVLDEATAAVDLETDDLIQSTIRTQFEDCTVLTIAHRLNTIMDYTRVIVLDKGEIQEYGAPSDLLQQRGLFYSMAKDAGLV
T1 sequence (P08183 whole entry): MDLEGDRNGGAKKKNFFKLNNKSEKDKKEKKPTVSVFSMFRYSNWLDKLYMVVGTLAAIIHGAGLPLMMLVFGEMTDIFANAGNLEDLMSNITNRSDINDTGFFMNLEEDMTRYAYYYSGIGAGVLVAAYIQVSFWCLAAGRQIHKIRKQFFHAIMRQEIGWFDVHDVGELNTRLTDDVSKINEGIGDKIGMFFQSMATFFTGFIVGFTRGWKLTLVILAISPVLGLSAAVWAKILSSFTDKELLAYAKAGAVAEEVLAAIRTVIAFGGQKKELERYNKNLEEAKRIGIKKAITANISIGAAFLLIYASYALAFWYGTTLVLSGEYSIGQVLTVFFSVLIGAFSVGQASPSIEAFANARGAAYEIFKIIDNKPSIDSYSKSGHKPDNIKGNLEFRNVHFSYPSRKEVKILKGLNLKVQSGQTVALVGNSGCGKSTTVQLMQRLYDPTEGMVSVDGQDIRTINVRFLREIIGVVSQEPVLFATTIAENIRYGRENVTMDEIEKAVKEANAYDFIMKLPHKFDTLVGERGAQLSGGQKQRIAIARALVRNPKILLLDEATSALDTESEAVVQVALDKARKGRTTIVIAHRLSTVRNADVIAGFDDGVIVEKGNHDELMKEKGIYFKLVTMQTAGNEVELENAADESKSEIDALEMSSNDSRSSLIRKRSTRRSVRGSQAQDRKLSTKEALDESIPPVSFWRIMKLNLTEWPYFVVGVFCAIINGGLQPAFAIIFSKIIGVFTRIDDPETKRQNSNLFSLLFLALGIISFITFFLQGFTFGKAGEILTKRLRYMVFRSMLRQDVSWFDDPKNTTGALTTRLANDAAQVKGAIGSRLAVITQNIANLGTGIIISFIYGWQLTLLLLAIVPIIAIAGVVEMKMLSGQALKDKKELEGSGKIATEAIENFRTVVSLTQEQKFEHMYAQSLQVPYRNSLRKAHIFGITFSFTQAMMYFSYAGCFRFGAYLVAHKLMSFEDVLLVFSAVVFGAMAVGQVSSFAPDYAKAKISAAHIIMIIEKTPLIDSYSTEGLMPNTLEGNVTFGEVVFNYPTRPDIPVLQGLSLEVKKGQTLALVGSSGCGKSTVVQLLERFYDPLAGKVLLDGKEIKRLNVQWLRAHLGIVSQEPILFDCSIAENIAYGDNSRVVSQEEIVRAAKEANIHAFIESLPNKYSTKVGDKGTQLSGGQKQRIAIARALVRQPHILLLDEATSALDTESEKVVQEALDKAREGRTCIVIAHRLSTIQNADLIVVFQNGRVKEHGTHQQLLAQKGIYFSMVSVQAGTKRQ

With `COc1ccc(C(=O)Oc2ccc(CCN3CCc4cc(OC)c(OC)cc4C3)cc2)c(OC)c1` [Compound 16, 4–(2-(6,7-Dimethoxy-3,4-dihydroisoquinolin-2(1H)-yl)ethyl)phenyl 2,4-dimethoxybenzoate], the half-maximal effective concentration (EC50) at P-gp is 100 ± 20 nM; at MRP1, 87000 ± 17000 nM. Further, in data set [1], the efflux ratio at 120 min, 100 µM was determined as 7.1.

For `COc1cc2c(cc1OC)CN(CCc1ccc(NC(=O)c3ccc(OC)c(OC)c3OC)cc1)CC2` [Compound 1, N-(4–(2-(6,7-dimethoxy-3,4-dihydroisoquinolin-2(1H)-yl)ethyl)phenyl)-2,3,4-trimethoxybenzamide], the EC50 on P-gp was 530 ± 100 nM. Further, the efflux ratio at 120 min, 100 µM in data set [1] turned out to be 7.

On to `COc1cc2c(cc1OC)CN(CCc1ccc(OC(=O)c3c(OC)ccc4ccccc34)cc1)CC2` [Compound 20, 4–(2-(6,7-Dimethoxy-3,4-dihydroisoquinolin-2(1H)-yl)ethyl)phenyl 2-methoxy-1-naphthoate], for which the EC50 on P-gp was 110 ± 20 nM. Also, the efflux ratio at 120 min, 100 µM in data set [1] worked out at 4.8.

For the molecule `COc1cc2c(cc1OC)CN(CCc1ccc(OC(=O)c3cccc(OC)c3OC)cc1)CC2` [Compound 18, 4–(2-(6,7-Dimethoxy-3,4-dihydroisoquinolin-2(1H)-yl)ethyl)phenyl 2,3-dimethoxybenzoate], on P-gp, the EC50 was 340 ± 70 nM. For the same molecule, in data set [1], the efflux ratio at 120 min, 100 µM stood at 4.1.

On to `COc1ccc(C(=O)Nc2ccc(CCN3CCc4cc(OC)c(OC)cc4C3)cc2)c(OC)c1` [Compound 3, N-(4–(2-(6,7-dimethoxy-3,4-dihydroisoquinolin-2(1H)-yl)ethyl)phenyl)-2,4-dimethoxybenzamide], for which, at P-gp, the EC50 is 40.5 ± 8 nM. Also, the inhibition at 30 min, 10 µM on P-gp is 90 to 95%. Also, the “MRP1, percentage of the effect” value at MRP1 is given as 31%^d. Moreover, the efflux ratio at 120 min, 100 µM in data set [1] was found to be 7.4. Moreover, the “cytotoxicity, co-administration with doxorubicin” value in the data set with MDCK-MDR1 cells amounted to 77%. In addition, the “reduction of cell viability, co-administration with doxorubicin” value was determined as 5% in the data set with HT29 cells, 35% in the data set with HT29/DX cells, 25% in the data set on A549 cells and 40% with A549/DX cells. Moreover, the “cytotoxicity, compound alone” value in data set [2] is “not cytotoxic”.

`COc1cc2c(cc1OC)CN(CCc1ccc(OC(=O)c3cccc4ccccc34)cc1)CC2` [Compound 19, 4–(2-(6,7-Dimethoxy-3,4-dihydroisoquinolin-2(1H)-yl)ethyl)phenyl 1-naphthoate]: the EC50 on P-gp is 840 ± 160 nM. For the same molecule, the efflux ratio at 120 min, 100 µM in data set [1] came out at 5.1.

Turning to `COc1cc2c(cc1OC)CN(CCc1ccc(OC(=O)c3c(OC)c(OC)cc4ccccc34)cc1)CC2` [Compound 21, 4–(2-(6,7-Dimethoxy-3,4-dihydroisoquinolin-2(1H)-yl)ethyl)phenyl 2,3-dimethoxy-1-naphthoate], the EC50 at P-gp is 100 ± 20 nM. For the same molecule, in data set [1], the efflux ratio at 120 min, 100 µM came out at 5.4.

For `COc1cc2c(cc1OC)CN(CCc1ccc(OC(=O)c3ccccc3OC)cc1)CC2` [Compound 15, 4–(2-(6,7-Dimethoxy-3,4-dihydroisoquinolin-2(1H)-yl)ethyl)phenyl 2-methoxybenzoate], on P-gp, the EC50 is 730 ± 140 nM. Also, the efflux ratio at 120 min, 100 µM in [1] worked out at 5.4.

As to `COc1cc2c(cc1OC)CN(CCc1ccc(OC(=O)c3ccc(OC)c(OC)c3OC)cc1)CC2` [Compound 14, 4–(2-(6,7-Dimethoxy-3,4-dihydroisoquinolin-2(1H)-yl)ethyl)phenyl 2,3,4-trimethoxybenzoate], the EC50 is 360 ± 69 nM at P-gp and 69700 ± 13900 nM on MRP1. Besides, the efflux ratio at 120 min, 100 µM in [1] was 9.

`COc1cc2c(cc1OC)CN(CCc1ccc(NC(=O)c3cccc(OC)c3OC)cc1)CC2` [Compound 5, N-(4–(2-(6,7-dimethoxy-3,4-dihydroisoquinolin-2(1H)-yl)ethyl)phenyl)-2,3-dimethoxybenzamide]: the EC50 at P-gp was 260 ± 50 nM. Besides, the efflux ratio at 120 min, 100 µM in [1] came to 5.

For `COc1cc2c(cc1OC)CN(CCc1ccc(NC(=O)c3c(OC)c(OC)cc4ccccc34)cc1)CC2` [Compound 8, N-(4–(2-(6,7-dimethoxy-3,4-dihydroisoquinolin-2(1H)-yl)ethyl)phenyl)-2,3-dimethoxy-1-naphthamide], the EC50 on P-gp is 47.8 ± 9.3 nM. In addition, on P-gp, the inhibition at 30 min, 10 µM was 90 to 95%. In addition, at MRP1, the “MRP1, percentage of the effect” value is listed as 47%^d. Besides, the efflux ratio at 120 min, 100 µM in [1] worked out at 5.5. Also, in the data set on MDCK-MDR1 cells, the “cytotoxicity, co-administration with doxorubicin” value was “around 50%”. For the same molecule, the “reduction of cell viability, co-administration with doxorubicin” value in the data set with HT29 cells is on record as 10%; in the data set with HT29/DX cells it was 29%; with A549 cells, 25%; in the data set on A549/DX cells, 49%. In addition, the “cytotoxicity, compound alone” value in data set [2] is recorded as “not cytotoxic”.
